This is an account of results in publication PMC5218480 (PLoS ONE, 2017).

For the experiment, the system named is MV-4-11 cells. The experiment is described as follows: Gene expression microarray analysis (Affymetrix PrimeView) and GSEA. Format: cell-based, human. On the set-up: RFU PODN (11730768_x_at) / Fold change /veh PODN (11730768_x_at) / RFU LINC00158 (11744669_a_at) / Fold change /veh LINC00158 (11744669_a_at) / RFU DUSP10 (11751237_a_at) / Fold change /veh DUSP10 (11751237_a_at) / RFU ID3 (11757404_x_at) / Fold change /veh ID3 (11757404_x_at) / RFU PLEKHG5 (11737974_s_at) / Fold change /veh PLEKHG5 (11737974_s_at) / RFU LRRC4B (11730491_at) / Fold change /veh LRRC4B (11730491_at) / RFU GIMAP4 (11747438_a_at) / Fold change /veh GIMAP4 (11747438_a_at) / RFU KRT8 (11758183_x_at) / Fold change /veh KRT8 (11758183_x_at) / RFU CNN1 (11734310_a_at) / Fold change /veh CNN1 (11734310_a_at) / RFU VPS37D (11726825_at) / Fold change /veh VPS37D (11726825_at) / RFU C10orf10 (11716522_x_at) / Fold change /veh C10orf10 (11716522_x_at) / RFU KIR2DL2 /// KIR2DL4 /// KIR2DL5A /// KIR2DL5B /// KIR2DS1 /// KIR2DS2 /// KIR2DS3 /// KIR2DS4 /// KIR3DL3 /// KIR3DL3 /// KIR3DS1 (11738374_at) / Fold change /veh KIR2DL2 /// KIR2DL4 /// KIR2DL5A /// KIR2DL5B /// KIR2DS1 /// KIR2DS2 /// KIR2DS3 /// KIR2DS4 /// KIR3DL3 /// KIR3DL3 /// KIR3DS1 (11738374_at) / RFU C1QL1 (11718748_at) / Fold change /veh C1QL1 (11718748_at) / RFU TMPRSS4 (11747572_a_at) / Fold change /veh TMPRSS4 (11747572_a_at) / RFU HAMP (11756126_x_at) / Fold change /veh HAMP (11756126_x_at) / RFU RNFT2 (11725882_a_at) / Fold change /veh RNFT2 (11725882_a_at) / RFU NR4A2 (11747474_a_at) / Fold change /veh NR4A2 (11747474_a_at) / RFU ABCC12 (11746883_a_at) / Fold change /veh ABCC12 (11746883_a_at) / RFU TMEM136 (11760407_x_at) / Fold change /veh TMEM136 (11760407_x_at) / RFU CLDN22 /// WWC2 (11732394_at) / Fold change /veh CLDN22 /// WWC2 (11732394_at) / RFU HLA-DPB1 (11760878_x_at) / Fold change /veh HLA-DPB1 (11760878_x_at) / RFU SPINT1 (11716480_a_at) / Fold change /veh SPINT1 (11716480_a_at) / RFU GAP43 (11754022_s_at) / Fold change /veh GAP43 (11754022_s_at) / RFU A4GNT (11735810_at) / Fold change /veh A4GNT (11735810_at) / RFU PRB3 (11715151_x_at) / Fold change /veh PRB3 (11715151_x_at) / RFU TUBB4B (11761932_at) / Fold change /veh TUBB4B (11761932_at) / RFU CAPN14 (11732068_a_at) / Fold change /veh CAPN14 (11732068_a_at) / RFU TMCC2 (11721928_a_at) / Fold change /veh TMCC2 (11721928_a_at) / RFU IRGQ (11745062_a_at) / Fold change /veh IRGQ (11745062_a_at) / RFU FAM174B (11720279_a_at) / Fold change /veh FAM174B (11720279_a_at) / RFU TMPRSS4 (11748680_a_at) / Fold change /veh TMPRSS4 (11748680_a_at) / RFU FAM212B (11763350_a_at) / Fold change /veh FAM212B (11763350_a_at) / RFU PLEKHG5 (11743358_a_at) / Fold change /veh PLEKHG5 (11743358_a_at) / RFU ZSCAN30 (11745921_a_at) / Fold change /veh ZSCAN30 (11745921_a_at) / RFU CMKLR1 (11741424_a_at) / Fold change /veh CMKLR1 (11741424_a_at) / RFU LOC101060620 /// MAPK8IP1 (11723275_at) / Fold change /veh LOC101060620 /// MAPK8IP1 (11723275_at) / RFU SPTSSB (11747773_x_at) / Fold change /veh SPTSSB (11747773_x_at) / RFU PRSS12 (11739890_at) / Fold change /veh PRSS12 (11739890_at) / RFU BIN1 (11741810_x_at) / Fold change /veh BIN1 (11741810_x_at) / RFU WNT11 (11732464_a_at) / Fold change /veh WNT11 (11732464_a_at) / RFU C10orf10 (11716521_a_at) / Fold change /veh C10orf10 (11716521_a_at) / RFU C5orf56 (11738089_at) / Fold change /veh C5orf56 (11738089_at) / RFU CYB561 (11721691_x_at) / Fold change /veh CYB561 (11721691_x_at) / RFU ANKRD19P (11752326_a_at) / Fold change /veh ANKRD19P (11752326_a_at) / RFU OR2T12 /// OR2T33 /// OR2T8 (11738714_s_at) / Fold change /veh OR2T12 /// OR2T33 /// OR2T8 (11738714_s_at) / RFU VCAN (11748164_a_at) / Fold change /veh VCAN (11748164_a_at) / RFU JSRP1 (11732532_at) / Fold change /veh JSRP1 (11732532_at) / RFU KRTAP10-11 (11738290_x_at) / Fold change /veh KRTAP10-11 (11738290_x_at) / RFU MYO3A (11730013_a_at) / Fold change /veh MYO3A (11730013_a_at) / RFU EBF3 (11725865_a_at) / Fold change /veh EBF3 (11725865_a_at) / RFU CAMK2N1 (11719241_x_at) / Fold change /veh CAMK2N1 (11719241_x_at) / RFU C5orf56 (11738088_a_at) / Fold change /veh C5orf56 (11738088_a_at) / RFU OLFML3 (11715873_a_at) / Fold change /veh OLFML3 (11715873_a_at) / RFU LOC100653217 /// NTM (11731650_a_at) / Fold change /veh LOC100653217 /// NTM (11731650_a_at) / RFU MAPK11 (11762145_a_at) / Fold change /veh MAPK11 (11762145_a_at) / RFU FIZ1 (11724087_x_at) / Fold change /veh FIZ1 (11724087_x_at) / RFU OASL (11726364_x_at) / Fold change /veh OASL (11726364_x_at) / RFU SOX15 (11748057_x_at) / Fold change /veh SOX15 (11748057_x_at) / RFU CD79A (11719716_a_at) / Fold change /veh CD79A (11719716_a_at) / RFU HIST1H1D (11736915_at) / Fold change /veh HIST1H1D (11736915_at) / RFU CASKIN2 (11723855_a_at) / Fold change /veh CASKIN2 (11723855_a_at) / RFU LOC730098 (11760151_x_at) / Fold change /veh LOC730098 (11760151_x_at) / RFU OR4N2 (11742367_at) / Fold change /veh OR4N2 (11742367_at) / RFU PRRT2 (11749266_a_at) / Fold change /veh PRRT2 (11749266_a_at) / RFU SNX32 (11753110_a_at) / Fold change /veh SNX32 (11753110_a_at) / RFU CDHR5 (11726645_a_at) / Fold change /veh CDHR5 (11726645_a_at) / RFU RCAN1 (11760418_a_at) / Fold change /veh RCAN1 (11760418_a_at) / RFU FAM167A (11723789_a_at) / Fold change /veh FAM167A (11723789_a_at) / RFU FAM26E (11764081_at) / Fold change /veh FAM26E (11764081_at) / RFU ISYNA1 (11749810_s_at) / Fold change /veh ISYNA1 (11749810_s_at) / RFU ACY1 (11761880_at) / Fold change /veh ACY1 (11761880_at) / RFU 11764098_at / Fold change /veh 11764098_at / RFU SAMD14 (11745864_x_at) / Fold change /veh SAMD14 (11745864_x_at) / RFU NPB (11741838_a_at) / Fold change /veh NPB (11741838_a_at) / RFU TMPRSS6 (11731388_a_at) / Fold change /veh TMPRSS6 (11731388_a_at) / RFU KRTAP10-2 (11738614_at) / Fold change /veh KRTAP10-2 (11738614_at) / RFU ARHGAP8 /// PRR5-ARHGAP8 (11727945_x_at) / Fold change /veh ARHGAP8 /// PRR5-ARHGAP8 (11727945_x_at) / RFU KRTAP5-7 /// NADSYN1 (11734609_at) / Fold change /veh KRTAP5-7 /// NADSYN1 (11734609_at) / RFU RASL12 (11751679_a_at) / Fold change /veh RASL12 (11751679_a_at) / RFU CDKN2B (11736163_a_at) / Fold change /veh CDKN2B (11736163_a_at) / RFU PRF1 (11729649_at) / Fold change /veh PRF1 (11729649_at) / RFU, ZNF638 /// ZNF638-IT1 / Fold change vs veh, ZNF638 /// ZNF638-IT1 / RFU, PANK3 / Fold change vs veh, PANK3 / RFU, SH3YL1 / Fold change vs veh, SH3YL1 / RFU, ZEB2 / Fold change vs veh, ZEB2 / RFU, NRIP1 / Fold change vs veh, NRIP1 / RFU, PTTG1IP / Fold change vs veh, PTTG1IP / RFU, CAPN2 / Fold change vs veh, CAPN2 / RFU, MED14 / Fold change vs veh, MED14 / RFU, SNORA58 / Fold change vs veh, SNORA58 / RFU, C1orf63 / Fold change vs veh, C1orf63 / RFU, LRRFIP1 / Fold change vs veh, LRRFIP1 / RFU, NDUFAF7 / Fold change vs veh, NDUFAF7 / RFU, SLC12A2 / Fold change vs veh, SLC12A2 / RFU, IBTK / Fold change vs veh, IBTK / RFU, ESF1 / Fold change vs veh, ESF1 / Fold change vs veh, TMEM50B / RFU, TAOK1 / Fold change vs veh, TAOK1 / RFU, ACBD3 / Fold change vs veh, ACBD3 / RFU, TMA16 / Fold change vs veh, TMA16 / RFU, RWDD3 / Fold change vs veh, RWDD3 / RFU, BCAT1 / Fold change vs veh, BCAT1 / RFU, EDEM3 / Fold change vs veh, EDEM3 / RFU, TMEM33 / Fold change vs veh, TMEM33 / RFU, WDR75 / Fold change vs veh, WDR75 / RFU, AHCTF1 / Fold change vs veh, AHCTF1 / RFU, TFRC / Fold change vs veh, TFRC / RFU, ZDHHC17 / Fold change vs veh, ZDHHC17 / RFU, NOM1 / Fold change vs veh, NOM1 / RFU, ARL8B / Fold change vs veh, ARL8B / RFU, ZBTB11 / Fold change vs veh, ZBTB11 / RFU, TAMM41 / Fold change vs veh, TAMM41 / RFU, KIAA1704 /// LOC100996395 / Fold change vs veh, KIAA1704 /// LOC100996395 / RFU, ING1 / Fold change vs veh, ING1 / RFU, TRMT61B / Fold change vs veh, TRMT61B / RFU, FUBP3 / Fold change vs veh, FUBP3 / RFU, TP53 / Fold change vs veh, TP53 / RFU, TNKS2 / Fold change vs veh, TNKS2 / RFU, ZFP14 / Fold change vs veh, ZFP14 / RFU, ACTR2 / Fold change vs veh, ACTR2 / RFU, PPP3R1 / Fold change vs veh, PPP3R1 / RFU, PIK3R1 / Fold change vs veh, PIK3R1 / RFU, HNRNPA1 / Fold change vs veh, HNRNPA1 / RFU, RNF170 / Fold change vs veh, RNF170 / RFU, ZNF28 / Fold change vs veh, ZNF28 / RFU, RNGTT / Fold change vs veh, RNGTT / RFU, OGT / Fold change vs veh, OGT / RFU, BRD1 / Fold change vs veh, BRD1 / RFU, MARS / Fold change vs veh, MARS / RFU, ZNF655 / Fold change vs veh, ZNF655 / RFU, FAHD1 / Fold change vs veh, FAHD1 / RFU, BDP1 / Fold change vs veh, BDP1 / RFU, LRRCC1 / Fold change vs veh, LRRCC1 / RFU, ARID1A / Fold change vs veh, ARID1A / RFU, ZNF146 / Fold change vs veh, ZNF146 / RFU, ZNF330 / Fold change vs veh, ZNF330 / RFU, GPN3 / Fold change vs veh, GPN3 / RFU, C9orf123 / Fold change vs veh, C9orf123 / RFU, N4BP2L2 / Fold change vs veh, N4BP2L2 / RFU, ARFIP1 / Fold change vs veh, ARFIP1 / RFU, FAM179B / Fold change vs veh, FAM179B / RFU, BCL10 / Fold change vs veh, BCL10 / RFU, UHRF1BP1L / Fold change vs veh, UHRF1BP1L / RFU, BET1 / Fold change vs veh, BET1 / RFU, CNOT2 / Fold change vs veh, CNOT2 / RFU, ZNF268 / Fold change vs veh, ZNF268 / Fold change vs veh, ZNF507 / RFU, DGCR2 / Fold change vs veh, DGCR2 / RFU, WDSUB1 / Fold change vs veh, WDSUB1 / Fold change vs veh, HSP90B1 /// MIR3652 / RFU, ADSS / Fold change vs veh, ADSS / RFU, GK / Fold change vs veh, GK / RFU, ZNF148 / Fold change vs veh, ZNF148 / RFU, TAF9 / Fold change vs veh, TAF9 / RFU, SLC1A5 / Fold change vs veh, SLC1A5 / RFU, SLMO2 / Fold change vs veh, SLMO2 / RFU, ABCC4 / Fold change vs veh, ABCC4 / RFU, LOC101060439 /// RAP1B / Fold change vs veh, LOC101060439 /// RAP1B / RFU, RFX7 / Fold change vs veh, RFX7 / RFU, GTPBP10 / Fold change vs veh, GTPBP10 / RFU, CNEP1R1 / Fold change vs veh, CNEP1R1 / RFU, BIVM-ERCC5 /// ERCC5 / Fold change vs veh, BIVM-ERCC5 /// ERCC5 / RFU, ILF3 / Fold change vs veh, ILF3 / RFU 11762660_at / Fold change /veh 11762660_at / RFU VCAN (11757783_s_at) / Fold change /veh VCAN (11757783_s_at) / RFU DDX43 (11728927_at) / Fold change /veh DDX43 (11728927_at) / RFU KRT8 (11758188_x_at) / Fold change /veh KRT8 (11758188_x_at) / RFU NKD1 (11759106_at) / Fold change /veh NKD1 (11759106_at) / RFU SRD5A1 (11742802_a_at) / Fold change /veh SRD5A1 (11742802_a_at) / RFU TPSAB1 /// TPSB2 (11721975_s_at) / Fold change /veh TPSAB1 /// TPSB2 (11721975_s_at) / RFU GSTM3 (11746129_a_at) / Fold change /veh GSTM3 (11746129_a_at) / RFU IL23R (11737362_x_at) / Fold change /veh IL23R (11737362_x_at) / RFU TMEM51 (11727254_a_at) / Fold change /veh TMEM51 (11727254_a_at) / RFU PIWIL2 (11732686_x_at) / Fold change /veh PIWIL2 (11732686_x_at) / RFU ORM1 (11744905_x_at) / Fold change /veh ORM1 (11744905_x_at) / RFU CCDC152 (11743942_at) / Fold change /veh CCDC152 (11743942_at) / RFU ECM1 (11717891_a_at) / Fold change /veh ECM1 (11717891_a_at) / RFU IL23R (11748794_a_at) / Fold change /veh IL23R (11748794_a_at) / RFU TNFAIP8L3 (11732012_x_at) / Fold change /veh TNFAIP8L3 (11732012_x_at) / RFU MBOAT4 (11741988_at) / Fold change /veh MBOAT4 (11741988_at) / RFU 11764193_at / Fold change /veh 11764193_at / RFU TMEM53 (11763286_at) / Fold change /veh TMEM53 (11763286_at) / RFU MAGEB2 (11727129_at) / Fold change /veh MAGEB2 (11727129_at) / RFU TMEM200A (11744735_a_at) / Fold change /veh TMEM200A (11744735_a_at) / RFU CCDC152 (11751479_a_at) / Fold change /veh CCDC152 (11751479_a_at) / RFU FAM211A (11726209_a_at) / Fold change /veh FAM211A (11726209_a_at) / RFU RGS16 (11746705_a_at) / Fold change /veh RGS16 (11746705_a_at) / RFU VCAN (11755009_s_at) / Fold change /veh VCAN (11755009_s_at) / RFU RHOB (11743442_s_at) / Fold change /veh RHOB (11743442_s_at) / RFU RGS16 (11720943_a_at) / Fold change /veh RGS16 (11720943_a_at) / RFU RGS16 (11720944_at) / Fold change /veh RGS16 (11720944_at) / RFU, VPS4B / Fold change vs veh, VPS4B / RFU, CREB1 / Fold change vs veh, CREB1 / RFU, DNAJC13 / Fold change vs veh, DNAJC13 / RFU, GNAQ / Fold change vs veh, GNAQ / RFU, CDK5R1 / Fold change vs veh, CDK5R1 / RFU, ZRANB3 / Fold change vs veh, ZRANB3 / RFU, CUL4A / Fold change vs veh, CUL4A / RFU, CCNY / Fold change vs veh, CCNY / RFU, UFL1 / Fold change vs veh, UFL1 / RFU, COG3 / Fold change vs veh, COG3 / RFU, DIAPH2 / Fold change vs veh, DIAPH2 / RFU, SKA2 / Fold change vs veh, SKA2 / RFU, AFF3 / Fold change vs veh, AFF3 / RFU, LMF1 / Fold change vs veh, LMF1 / RFU, IPO11 / Fold change vs veh, IPO11 / RFU, DFFB / Fold change vs veh, DFFB / RFU, FOXP1 / Fold change vs veh, FOXP1 / RFU, CARD8 / Fold change vs veh, CARD8 / RFU, STRN3 / Fold change vs veh, STRN3 / RFU, ADK / Fold change vs veh, ADK / RFU, RASSF2 / Fold change vs veh, RASSF2 / RFU, WIPF1 / Fold change vs veh, WIPF1 / RFU, LARP1B / Fold change vs veh, LARP1B / RFU, RASA1 / Fold change vs veh, RASA1 / RFU, RB1 / Fold change vs veh, RB1 / RFU, PPFIA1 / Fold change vs veh, PPFIA1 / RFU, MAT2A / Fold change vs veh, MAT2A / RFU, CCT5 / Fold change vs veh, CCT5 / RFU, WDR92 / Fold change vs veh, WDR92 / RFU, CUX1 / Fold change vs veh, CUX1 / RFU, TTC7A / Fold change vs veh, TTC7A / RFU, TMEM135 / Fold change vs veh, TMEM135 / RFU, DEPTOR / Fold change vs veh, DEPTOR / RFU, CPM / Fold change vs veh, CPM / RFU, DNAJB6 / Fold change vs veh, DNAJB6 / RFU, CACNA2D3 / Fold change vs veh, CACNA2D3 / RFU, DTX4 / Fold change vs veh, DTX4 / RFU, TFCP2 / Fold change vs veh, TFCP2 / RFU, GMCL1 /// GMCL1P1 / Fold change vs veh, GMCL1 /// GMCL1P1 / RFU, AEBP2 / Fold change vs veh, AEBP2 / RFU, SNHG1 /// SNORD22 /// SNORD25 /// SNORD26 /// SNORD27 /// SNORD28 /// SNORD29 /// SNORD31 / Fold change vs veh, SNHG1 /// SNORD22 /// SNORD25 /// SNORD26 /// SNORD27 /// SNORD28 /// SNORD29 /// SNORD31 / Fold change (Aza/veh), C12orf56 (ProbeSet 11735607_a_at) / Fold change (ACY-1035/veh), C12orf56 (ProbeSet 11735607_a_at) / Fold change (Aza/veh), FGFR1OP (ProbeSet 11751329_s_at) / Fold change (ACY-1035/veh), FGFR1OP (ProbeSet 11751329_s_at) / Fold change (Aza/veh), VPS36 (ProbeSet 11739960_a_at) / Fold change (ACY-1035/veh), VPS36 (ProbeSet 11739960_a_at) / RFU SYPL1 (11715823_x_at) / Fold change /veh SYPL1 (11715823_x_at) / RFU IGFBP7 (11715501_s_at) / Fold change /veh IGFBP7 (11715501_s_at) / RFU REEP3 (11722064_at) / Fold change /veh REEP3 (11722064_at) / RFU IGLL1 (11728026_x_at) / Fold change /veh IGLL1 (11728026_x_at): dose or concentration left out as unconfirmed. The conditions noted are these: ProbeSet 11749551_a_at; LIST B.

Regarding `Nc1ncn([C@@H]2O[C@H](CO)[C@@H](O)[C@H]2O)c(=O)n1` [azacitidine], the “Fold change vs veh, RNGTT” value is given as 1.02.
